Entries after “also recorded” stand apart in the source; their conditions may differ. Peptide text beside a SMILES is read from it.
Key:
Format in all cases: in vivo, rat
EphB1 [1] = experiment: Western blot of EphB1 and pEphB1 in spinal cord of naive rats; settings: for Activation (phosphorylation) of EphB1 / Expression of EphB1 protein: exogenous MMP, no EphB2-Fc
Description: (§1) Protein precipitation procedures in conjunction with Western blots were employed to identify temporal expression of EphB1, ephrinB2 protein and their phosphorylation. Protocols were similar to those described previously (Liu W T, et al., FASEB J 2009; 23:90-8; Liu W T, et al., J Neurosci 2010; 30:7613-23). EphB1 and ephrinB2 were immunoprecipitated from 2 mg total protein/int tissue lysate using an anti-EphB1 antibody (2 μg; Santa Cruz Technology, SCT) complex with protine G-agarose (Invitrogen) and wheat germ agglutinin (WGA) linked to agarose (Sigma), respectively. EphrinB2 and its phosphorylation were detected using anti-ephrinB2 (C20, SCT) and anti-phosphotyrosine antibody PY99 (SCT), respectively (Georgakopoulos A, et al., EMBO J 2006; 25:1242-52). EphB1 and its phosphorylation were detected using anti-EphB1 antibody (Q20, SCT) and phosphotyrosine antibody 4G 10 (Upstate Biotechnology), respectively (Compagni A, et al., Dev Cell 2003; 5:217-30). NR2A immunoprecipitation was performed using anti-NR2A antibody followed by adsorption to protein G-agarose. Whole cell protein extracts lysates were used to identify temporal expression of the phosphorylated protein levels of NR1(pNR1), NR2B(pNR2B), Src(pSrc), ERK(pERK), CaMKII(pCaMKII), CREB(pCREB) and GAPDH. The primary antibodies were used include pNR1(Ser897), 1:800 (Millipore); pNR2B(Tyr1472), 1:300 (Chemicon); pSrc(Tyr418), 1:800 (Abeam, Cambridge, UK); pERK1/2(Thr202/Tyr204), 1:500; pCaMKII(Thr286), 1:1000 (Cell Signaling Technology); GAPDH, 1:1000 (Sigma); GFAP and pCREB (Ser133)(SCT). The filters were then developed using ECL reagents (Perkinelmer) with secondary antibodies (Chemicon). Data was analyzed with a Molecular Imager (Gel Doc™ XR, 170-8170) and the associated software Quantity One-4.6.5 (Bio-Rad Laboratories).

EphB1 [2] = experiment: Western blot of EphB1 and its phosphorylation in spinal cord of TCI rats; settings: for Increased levels of EphB1: exogenous MMP, no EphB2-Fc
Description: as §1

[3] = Morphine analgesia on thermal hyperalgesia in TCI rats
Description: Tumor cells were extracted from ascitic fluid of rats that received Walker-256 rat mammary gland carcinoma cells. Tumor cells implantation (TCI) was mimicked by injecting the cells (1×10^5 cells/μl, 5 μl) into the intra-medullary space of the right tibia to induce bone cancer in rats (Medhurst S J, et al., Pain 2002; 96:129-40).
Thermal hyperalgesia was determined by the significant shortened latency of foot withdrawal in response to heat stimulation. Mechanical allodynia was indicated by a significant decrease in the threshold of paw withdrawal to mechanical indentation of the plantar surface of each hindpaw. The protocols were similar to those described previously (Song X J, et al., J Neurophysiol 2006; 95:479-92; Wang Z B, et al., Pain 2005; 114:266-77).

EphB1 [4] = experiment: Western blot of EphB1 after acute or chronic morphine treatment
Description: as §1

## CC(C)C[C@@H](NC(=O)[C@@H]1CCCN1C(=O)CNC(=O)c1ccc(N)cc1)C(=O)N[C@H](C)C(=O)NO [FN439] (HELM PEPTIDE1{[Nc1ccc(C(=O)[*:2])cc1].G.P.[dL].[dA].[ON[*:1]]}$$$$V2.0)
EphB1 [1]; MMP2i 10 μg or FN439 100 μg
  EphB2-Fc-induced downregulation of EphB1: reversed; also recorded: completely prevented
EphB1 [1]; blocking MMP-2 or MMP-9
  EphB1 level, without EphB2-Fc treatment: keeping EphB1 at its physiological levels
EphB1 [2]; MMP2i 10 μg or FN439 100 μg
  EphB2-Fc-induced downregulation of EphB1: reversed; also recorded: completely prevented
EphB1 [2]; blocking MMP-2 or MMP-9
  TCI-induced upregulation of EphB1, without EphB2-Fc treatment: inhibited

## CN1CC[C@]23c4c5ccc(O)c4O[C@H]2[C@@H](O)C=C[C@H]3[C@H]1C5 [morphine]
[3]; morphine 10 mg/kg s.c. twice a day
  Thermal hyperalgesia: significantly suppressed
[3]; repeated morphine 10 mg/kg s.c. twice a day
  Time after which the analgesic effect decreased and disappeared (tolerance): 6 to 7 days
EphB1 [4]; acute morphine treatment (100 mg/kg, then 10 mg/kg at 24 h)
  Expression of EphB1 and its phosphorylation: significantly increased
EphB1 [4]; acute morphine treatment (100 mg/kg, then 10 mg/kg at 24 h), listed as Mor
  Expression of EphB1 and its phosphorylation: upregulates
EphB1 [4]; chronic morphine treatment (10 mg/kg)
  Expression of EphB1 and its phosphorylation: significantly increased

## MMP-9: exogenous matrix metalloproteinase-9 administered to rats
EphB1 [1]
  Activation (phosphorylation) of EphB1: an increase rather than a decline
  Expression of EphB1 protein: without altering
EphB1 [2]
  Increased levels of EphB1: did not significantly alter

B1: MMP-2: exogenous matrix metalloproteinase-2 administered to rats (protein, UniProt P33436 110-662, looked up)
72 kDa type IV collagenase: YNFFPRKPKWDKNQITYRIIGYTPDLDPETVDDAFARALKVWSDVTPLRFSRIHDGEADIMINFGRWEHGDGYPFDGKDGLLAHAFAPGTGVGGDSHFDDDELWTLGEGQVVRVKYGNADGEYCKFPFLFNGREYSSCTDTGRSDGFLWCSTTYNFEKDGKYGFCPHEALFTMGGNGDGQPCKFPFRFQGTSYNSCTTEGRTDGYRWCGTTEDYDRDKKYGFCPETAMSTVGGNSEGAPCVFPFTFLGNKYESCTSAGRSDGKVWCATTTNYDDDRKWGFCPDQGYSLFLVAAHEFGHAMGLEHSQDPGALMAPIYTYTKNFRLSNDDIKGIQELYGPSPDADTDTGTGPTPTLGPVTPEICKQDIVFDGIAQIRGEIFFFKDRFIWRTVTPRDKPTGPLLVATFWPELPEKIDAVYEAPQEEKAVFFAGNEYWVYSASTLERGYPKPLTSLGLPPDVQQVDAAFNWSKNKKTYIFSGDKFWRYNEVKKKMDPGFPKLIADSWNAIPDNLDAVVDLQGGGHSYFFKGAYYLKLENQSLKSVKFGSIKSDWLGC
EphB1 [1]
  Activation (phosphorylation) of EphB1: an increase rather than a decline
  Expression of EphB1 protein: without altering
EphB1 [2]
  Increased levels of EphB1: did not significantly alter
